# Measured values: publication PMC8476831, “Pharmacological Characterization of Toludesvenlafaxine as a Triple Reuptake Inhibitor” (Frontiers in Pharmacology, 2021)
# Read-outs that look alike come from different tables or passages of the source. Marks after values point to notes of the source that are not given here.
# How the values were obtained:
# [1] = test system: olfactory bulbectomized rats; experiment: Olfactory bulbectomized model: open field test, sucrose consumption, serum corticosterone and testosterone
# Procedure: Thereafter, all rats received daily intragastric dosing for 20 days. The open field test on the 7th and 14th days of dosing, sucrose consumption on the 18th day of dosing, and serum levels of corticosterone and testosterone on the 20th day of dosing were determined.
# (§1) Locomotor activity was measured in custom-made acrylic boxes (Height✕Width✕Length: 40✕52✕52 cm). The boxes were placed underneath cameras and all sessions (the duration of the sessions was 5 min) were recorded and data were later quantified by experimenters blinded to treatments. The bottom surface of the boxes was divided into 16 equal squares. Two parameters were quantified from the sessions: the number of squares each rat crossed with both front paws and the number of rearing episodes. Standing with two front paws off the ground was considered one episode of rearing.
# (§2) Rats were exposed to 1% sucrose solution in leak-proof bottles for 1 h per day for 3 consecutive days. […] The weight difference of the bottles before and after the 2-h test was considered the total amount of sucrose consumed by the rats.
# The serum corticosterone and testosterone levels were measured following the kit instructions.
# [2] = test system: CUMS rats; experiment: Chronic unpredictable mild stress (CUMS) model: open field test and sucrose consumption; conditions: 7.3 mg/kg oral once daily 21 days
# Source text: Briefly, SD rats were randomly exposed to various stressors for 3 weeks. […] No stressor was repeated within 2 days for each rat. The control group was housed in a separate room, with free access to food and water, and not disturbed.
# Rats received oral administration of study drugs once daily for 21 consecutive days during the chronic stress exposure period. At the end of the chronic stress and drug treatment period, the open field test (21st day) and amount of sucrose consumption (22nd day) were determined.
# as §1, §2
# [3] = test system: striatum; parameters: method as in Zhang et al., 2014; conditions: ref Zhang et al., 2014; cited from earlier work
# [4] = Blood, brain and hypothalamus distribution after single intragastric dose; format: in vivo, Wistar rats; conditions: rats, toludesvenlafaxine 8 mg/kg intragastric
# Procedure: Total brain and hypothalamus distribution study was conducted in Wistar rats (4/sex/group) following a single intragastric dose at 8 mg/kg. […] All tissues were immediately rinsed with 200 μg/ml dichlorovos (as esterase inhibitor) ice-cold saline after collection and then were stored at −80°C until analysis using LC-MS/MS.
# [5] = 7.3 mg/kg daily, 20th day of dosing
# [6] = both sexes, Wistar, rat, blood, oral, read-out: Blood concentration
# [7] = both sexes, Wistar, rat, brain, oral, read-out: Brain concentration
# [8] = both sexes, Wistar, rat, hypothalamus, oral, read-out: Hypothalamus concentration
compound,measurement,setting,value
"CN(C)CC(c1ccc(O)cc1)C1(O)CCCCC1 (stereo not drawn) [DVS, desvenlafaxine succinate monohydrate]",Moving distance (squares crossed) Day 7,[1]; 7.3 mg/kg daily intragastric,26.8 ± 7.6 squares crossed
same,Moving distance (squares crossed) Day 14,[1]; 7.3 mg/kg daily intragastric,26.7 ± 10.1 squares crossed
same,Rearing time Day 7,[1]; 7.3 mg/kg daily intragastric,7.0 ± 3.1^d seconds
same,Rearing time Day 14,[1]; 7.3 mg/kg daily intragastric,9.4 ± 3.1^d seconds
same,Sugar consumption rate,"[1]; 7.3 mg/kg daily, 18th day of dosing",58.1 ± 26.6%
same,Corticosterone (serum),[1]; [5],394.1 ± 231.6 ng/L
same,Testosterone (serum),[1]; [5],2.4 ± 1.8 ng/mL
same,Sugar consumption rate,[2]; day 22,82.1 ± 7.4^d %
same,Numbers of squares crossed,[2]; open field day 21,47.0 ± 12.1^e
same,Rearing time,[2]; open field day 21,15.2 ± 3.9^d seconds
"CN(C)CC(c1ccc(O)cc1)C1(O)CCCCC1 (stereo not drawn) [ODV, O-desmethylvenlafaxine]",striatal DA level,[3],does not increase
same,concentration at 20 min,"[4]; both sexes, Wistar, rat, blood, oral, 15 min row (footnote: detected at 20 min)",90.9 ± 33.5 ng/mL
same,concentration at 1 h,[4]; [6],68.2 ± 23.6 ng/mL
same,concentration at 12 h,[4]; [6],2.84 ± 2.69 ng/mL
same,concentration at 15 min,"[4]; both sexes, Wistar, rat, brain, oral, 15 min, read-out: Brain concentration",13.8 ± 8.4 ng/g
same,concentration at 1 h,[4]; [7],20.9 ± 6.8 ng/g
same,concentration at 12 h,[4]; [7],2.06 ± 1.29 ng/g
same,concentration at 15 min,"[4]; both sexes, Wistar, rat, hypothalamus, oral, 15 min, read-out: Hypothalamus concentration",92.5 ng/g
same,concentration at 1 h,[4]; [8],97.9 ± 58 ng/g
same,concentration at 12 h,[4]; [8],7.22 ± 6.79 ng/g
same,Hypothalamus concentration,[4]; 15 min,92.52 ± 68.23 ng/g
